Data set [1] in a line: Metabolic stability test in liver S9. The class given is in vitro ADME. As to conditions: pH 7.4, human liver S9 2 mg protein/mL, LC/MS; for remaining at 10 min: unchanged form after 10 minutes at 37°C, read-out: Remaining rate in human liver S9 (%/10min); for remaining at 1 h: unchanged form after 60 minutes at 37°C, read-out: Remaining rate in human liver S9 (%/60min). The method, boiled down:
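Compound from DMSO solution was incubated at 37°C with human liver S9 (final 2 mg protein/mL) in 100 mM potassium phosphate pH 7.4 with an NADPH-regenerating system for 0, 10 and 60 minutes. Reactions were stopped with acetonitrile/0.1% formic acid. Unchanged compound was measured by LC/MS as remaining rate (%) relative to zero time.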

Data set [2] can be described thus: Metabolic stability test in plasma. The class given is in vitro ADME, human. To be noted: LC/MS; for remaining at 10 min: unchanged form after 10 minutes at 37°C in human plasma, read-out: Remaining rate in human plasma (%/10min); for remaining at 1 h: unchanged form after 60 minutes at 37°C in human plasma, read-out: Remaining rate in human plasma (%/60min). The method, boiled down: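 Remaining rate (%) versus zero time was derived from LC/MS measurement of parent compound after centrifugation. Plasma from human, mouse and hamster received DMSO-dissolved compound and was held at 37°C for 0, 10 or 60 minutes before acetonitrile containing formic acid (final 0.1%) stopped the reaction.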

The nature of data set [3]: Stability test in buffer (pH 7.4). The class given is physicochemical. To be noted: phosphate buffer/acetonitrile 7:3, 100 mM potassium phosphate buffer (pH 7.4) and acetonitrile 7:3 (v/v), LC/MS; for remaining at 10 min: 10 minutes at 37°C, read-out: Buf. remaining rate (%/10min); for remaining at 1 h: 60 minutes at 37°C, read-out: Buf. remaining rate (%/60min). An outline of the steps: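 Parent compound measured by LC/MS after 0, 10 or 60 min at 37°C in a 7:3 (v/v) mix of 100 mM potassium phosphate buffer and acetonitrile, with the reaction stopped by acetonitrile plus formic acid (final 0.1%). Percentage remaining is expressed relative to the zero-time amount.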

Regarding `CN(C)C(=O)c1cc(CCCC(=O)Oc2ccc(C(=O)OCc3cccs3)cc2)ccc1NC(=O)c1ccccc1-c1ccc(C(F)(F)F)cc1` [Compound 1-98, 4-[4-(3-dimethylcarbamoyl-4-{(4'-trifluoromethylbiphenyl-2-carbonyl)amino}phenyl)butyryloxy]benzoic acid thiophen-2-ylmethyl ester], the results for the remaining at 10 min in data set [1], in data set [2] and in data set [3] were 6%, 5% and 101%, respectively. For the same compound, the remaining at 1 h was 0% in data set [1], 0% in data set [2] and 99% in data set [3].

Turning to `CN(C)C(=O)c1cc(CCCC(=O)Oc2ccc(C(=O)OCc3ccsc3)cc2)ccc1NC(=O)c1ccccc1-c1ccc(C(F)(F)F)cc1` [Compound 1-99, 4-[4-(3-dimethylcarbamoyl-4-{(4'-trifluoromethylbiphenyl-2-carbonyl)amino}phenyl)butyryloxy]benzoic acid thiophen-3-ylmethyl ester], the remaining at 10 min in data set [1] is 6%; in data set [2], 5%; in data set [3], 98%. For the same compound, the figures for the remaining at 1 h in data set [1], in data set [2] and in data set [3] were 0%, 0% and 99%, respectively.

Take `Cc1cccc(COC(=O)c2ccc(OC(=O)CCCc3ccc(NC(=O)c4ccc(C)nc4-c4ccc(C(F)(F)F)cc4)c(C(=O)N(C)C)c3)cc2)n1` [Compound 1-100, 4-[4-(3-dimethylcarbamoyl-4-([6-methyl-2-(4-trifluoromethylphenyl)pyridine-3-carbonyl]amino}phenyl)butyryloxy]benzoic acid 6-methylpyridin-2-ylmethyl ester]: the values for the remaining at 10 min in data set [1], in data set [2] and in data set [3] were 0%, 12% and 102%, respectively. Also, the remaining at 1 h is 0% in data set [1], 0% in data set [2] and 102% in data set [3].

As for `Cc1cccc(COC(=O)c2ccc(OC(=O)CCCc3ccc(NC(=O)c4ccccc4-c4ccc(C(F)(F)F)cc4)c(C(=O)N(C)C)c3)cc2)n1` [Compound 1-101, 4-[4-(3-dimethylcarbamoyl-4-{(4'-trifluoromethylbiphenyl-2-carbonyl)amino}phenyl)butyryloxy]benzoic acid 6-methylpyridin-2-ylmethyl ester], the remaining at 10 min in data set [1] amounted to 3%; in data set [2], 42%; in data set [3], 100%. Moreover, the remaining at 1 h in data set [1] was determined as 0%; in data set [2], 0%; in data set [3], 103%.

Take `CC(C)OC(=O)COC(=O)c1ccc(OC(=O)CCCc2ccc(NC(=O)c3ccccc3-c3ccc(C(F)(F)F)cc3)c(C(=O)N(C)C)c2)cc1` [Compound 1-102, 4-[4-(3-dimethylcarbamoyl-4-{(4'-trifluoromethylbiphenyl-2-carbonyl)amino}phenyl)butyryloxy]benzoic acid isopropoxycarbonylmethyl ester]: the figures for the remaining at 10 min in data set [1], in data set [2] and in data set [3] were 0%, 46% and 98%, respectively. Moreover, the remaining at 1 h in data set [1] stood at 0%; in data set [2], 0%; in data set [3] it was 101%.

Regarding `CN(C)C(=O)c1cc(CCCC(=O)Oc2ccc(C(=O)OCc3ccc(C(=O)OC(C)(C)C)cc3)cc2)ccc1NC(=O)c1ccccc1-c1ccc(C(F)(F)F)cc1` [Compound 1-103, 4-[4-(3-dimethylcarbamoyl-4-{(4'-trifluoromethylbiphenyl-2-carbonyl)amino}phenyl)butyryloxy]benzoic acid 4-(t-butoxycarbonyl)benzyl ester], the remaining at 10 min in data set [1] stood at 48%; in data set [2], 99%; in data set [3], 105%. Moreover, the remaining at 1 h in data set [1] is 12%; in data set [2] it was 55%; in data set [3], 111%.

On to `CN(C)C(=O)c1cc(CCCC(=O)Oc2ccc(-c3nnn(CC(=O)OCc4ccccc4)n3)cc2)ccc1NC(=O)c1ccccc1-c1ccc(C(F)(F)F)cc1` [Compound 1-104, 4-(3-dimethylcarbamoyl-4-{(4'-trifluoromethylbiphenyl-2-carbonyl)amino}phenyl)butyric acid 4-(2-benzyloxycarbonylmethyl-2H-tetrazol-5-yl)phenyl ester], for which the remaining at 10 min in data set [1] worked out at 14%; in data set [2], 78%; in data set [3] it was 101%. The remaining at 1 h in data set [1] turned out to be 5%; in data set [2] it was 17%; in data set [3], 96%.

As for `CN(C)C(=O)Cn1nnc(-c2ccc(OC(=O)CCCc3ccc(NC(=O)c4ccccc4-c4ccc(C(F)(F)F)cc4)c(C(=O)N(C)C)c3)cc2)n1` [Compound 1-105, 4-(3-dimethylcarbamoyl-4-{(4'-trifluoromethylbiphenyl-2-carbonyl)amino}phenyl)butyric acid 4-(2-dimethylcarbamoylmethyl-2H-tetrazol-5-yl)phenyl ester], the values for the remaining at 10 min in data set [1], in data set [2] and in data set [3] were 3%, 84% and 101%, respectively. The values for the remaining at 1 h in data set [1], in data set [2] and in data set [3] were 0%, 43% and 101%, respectively.

On to `CC(OC(=O)c1ccc(OC(=O)CCCc2ccc(NC(=O)c3ccccc3-c3ccc(C(F)(F)F)cc3)c(C(=O)N(C)C)c2)cc1)c1ccccc1` (stereo not drawn) [Compound 1-106, 4-[4-(3-dimethylcarbamoyl-4-{(4'-trifluoromethylbiphenyl-2-carbonyl)amino}phenyl)butyryloxy]benzoic acid 1-phenylethyl ester], for which the remaining at 10 min in data set [1] was 13%; in data set [2], 49%; in data set [3], 98%. The remaining at 1 h was 0% in data set [1], 0% in data set [2] and 99% in data set [3].

On to `CN(C)C(=O)c1cc(CCCC(=O)Oc2ccc(C(=O)OC3CCc4ccccc43)cc2)ccc1NC(=O)c1ccccc1-c1ccc(C(F)(F)F)cc1` (stereo not drawn) [Compound 1-107, 4-[4-(3-dimethylcarbamoyl-4-{(4'-trifluoromethylbiphenyl-2-carbonyl)amino}phenyl)butyryloxy]benzoic acid indan-1-yl ester], for which the remaining at 10 min in data set [1] came out at 11%; in data set [2], 63%; in data set [3], 98%. The remaining at 1 h is 3% in data set [1], 2% in data set [2] and 99% in data set [3].

Turning to `CN(C)C(=O)c1cc(CCCC(=O)Oc2ccc(C(=O)OC3CCCc4ccccc43)cc2)ccc1NC(=O)c1ccccc1-c1ccc(C(F)(F)F)cc1` (stereo not drawn) [Compound 1-108, 4-[4-(3-dimethylcarbamoyl-4-{(4'-trifluoromethylbiphenyl-2-carbonyl)amino}phenyl)butyryloxy]benzoic acid 1,2,3,4-tetrahydronaphthalen-1-yl ester], the values for the remaining at 10 min in data set [1], in data set [2] and in data set [3] were 25%, 89% and 98%, respectively. Besides, the values for the remaining at 1 h in data set [1], in data set [2] and in data set [3] were 5%, 17% and 98%, respectively.

Regarding `CC(=O)N1CCC(OC(=O)c2ccc(OC(=O)CCCc3ccc(NC(=O)c4ccccc4-c4ccc(C(F)(F)F)cc4)c(C(=O)N(C)C)c3)cc2)CC1` [Compound 1-109, 4-[4-(3-dimethylcarbamoyl-4-{(4'-trifluoromethylbiphenyl-2-carbonyl)amino}phenyl)butyryloxy]benzoic acid 1-acetylpiperidin-4-yl ester], the remaining at 10 min was 0% in data set [1], 50% in data set [2] and 99% in data set [3]. Besides, the remaining at 1 h was found to be 0% in data set [1], 3% in data set [2] and 99% in data set [3].

As to `COC(=O)c1cc(C)c(OC(=O)CCCc2ccc(NC(=O)c3ccc(C)nc3-c3ccc(C(F)(F)F)cc3)c(C(=O)N(C)C)c2)c(C(=O)OC)c1` [Compound 1-110, 4-[4-(3-dimethylcarbamoyl-4-{[6-methyl-2-(4-trifluoromethylphenyl)pyridine-3-carbonyl]amino}phenyl)butyryloxy]-5-methylisophthalic acid dimethyl ester], the remaining at 10 min in data set [1] came to 5%; in data set [2], 26%; in data set [3], 99%. The remaining at 1 h in data set [1] stood at 0%; in data set [2] it was 0%; in data set [3] it was 102%.

The record behind these values is patent EP1803452A1, “ESTER DERIVATIVE AND PHARMACEUTICAL USE THEREOF” (Japan Tobacco, Inc., priority 2004, dated 2006).
